The values that follow come from publication PMC7199514 (Frontiers in Chemistry, 2020).

One test has as its system A549 cells. Briefly: MTT antiproliferation assay, A549. As to conditions: read-out: IC50 to cell lines, A549, exposed to tested compounds for 48 h. For orientation: Formazan colour is commonly taken as a measure of viable cells.
The next test deals with A431 cells. Briefly: MTT antiproliferation assay, A431. To be noted: read-out: IC50 to cell lines, A431, exposed to tested compounds for 48 h.
The next test has as its system HeLa cells. Briefly: MTT antiproliferation assay, HeLa. To be noted: read-out: IC50 to cell lines, HeLa, exposed to tested compounds for 48 h.
A further test relates to MCF-7 cells. Briefly: MTT antiproliferation assay, MCF-7. As to conditions: read-out: IC50 to cell lines, MCF-7, exposed to tested compounds for 48 h.
For test [1], the system named is A549 cisplatin-resistant subline A549/DDP. Nature of the test: MTT antiproliferation assay, A549/DDP. As to conditions: read-out: IC50 to cell lines, A549/DDP, exposed to tested compounds for 48 h.
Procedure: (§2) The cancer cell lines HeLa, A549, MCF-7, and A431 were obtained from the Center for Cell Resource of Peking Union Medical College Hospital, except that A549 cisplatin-resistant subline A549/DDP was obtained by incubation of increased concentration of cisplatin in the culture media until the IC50 value toward cisplatin was above three times of that of A549 cells. The cells were maintained in DMEM (Invitrogen, USA) media supplemented with 10% fetal calf serum (HyClone, USA), 1% PS at 310 K with 5% CO2. The IC50 values were determined using 3-(4,5-dimethyl-2-thiazolyl)-2,5-diphenyl-2-H-tetrazolium bromide (MTT) assay. […] Then cells were exposed to each tested compound at eight concentrations for 48 h. The resulting solution was removed and washed for two times using PBS; then 100 μl cell culture medium containing MTT (0.5 mg/ml) was added to the wells and incubated at 310 K for 4 h. Finally, the MTT media was removed and 100 μl DMSO added to each well to dissolve the formazan crystals. The optical density (OD) values were measured using a microplate reader (SpectraMax M5) at the wavelength of 570 nm. […] The IC50 value was calculated in Origin 8.0 using the logistic regression model. All reported values were averages of six independent experiments and expressed as mean ± standard deviation (SD).
Test [2] concerns the target T1, EGFR (kinase domain only) (Homo sapiens, UniProt P00533).
T1 construct: mixed with as-prepared EGFR (kinase domain only) solution; purchased Cell Signaling Technology, Inc. (assay kit); 7909
Nature of the test: EGFR inhibition by ELISA. The class given is biochemical. As to conditions: ELISA in the presence of 200 μM of ATP. How it is done:
Enzyme-linked immunosorbent assay (ELISA) was employed to evaluate the inhibition of compounds against EGFR. The ELISA screening was performed following the instruction provided by the supplier of the assay kits (no. 7909, Cell Signaling Technology, Inc.). An aliquot (10 μl) of the enzyme solution was added to 415 μl dithiothreitol (DTT) kinase buffer, which consists of 1.25 M DTT and 4 × HTScan® tyrosine kinase buffer [240 mM HEPES (pH 7.5), 20 mM MgCl2, 20 mM MnCl2, and 12 μM Na3VO4]. Each tested Pt compound was dissolved in dimethyl sulfoxide (DMSO) to give a 4 mM solution which was then diluted by deionized water prior to use. The ATP/peptide mixture was prepared by addition of 10 μl of 2.5 mM ATP to 125 μl of 6 μM substrate peptide and then diluted with D2O to 250 μl. An aliquot (12.5 μl) of the solution of a tested compound was mixed with as-prepared EGFR (kinase domain only) solution [12.5 μl, in 50% glycerol, containing 50 mM HEPES (pH = 7.6), 150 mM NaCl, 0.1% Triton, and 1 mM DTT, Sigma Chemical Company] and incubated at 298 K for 5 min, followed by addition of 25 μl of ATP/substrate mixture, and then the resulting mixture was incubated at 310 K for 1 h. The phosphorylation reaction was terminated by the addition of 50 μl/well stop buffer (50 mM EDTA, pH = 8). Each well of a microtiter plate was coated with 100 μl of 10 μg/ml streptavidin (Tianjin Biotechnology Co. Ltd., China) in carbonate–bicarbonate buffer and incubated overnight at 277 K and then blocked with 1.5% bovine serum albumin (BSA, Xinjingke Biotechnology Co. Ltd., China) in PBS/T (PBS solution containing 0.05% Tween-20) at 310 K for 2 h, followed by three times of washing with PBS/T prior to use. Then, 25 μL/well of each enzymatic reaction mixture and 75 μL/well of D2O were added to the plate (in triplicate) for incubation at 310 K for 1 h. Following three times of washing with PBS/T, 100 μl of primary antibody (phospho-tyrosine mouse mAb, 1:1,000 in PBS/T with 1.5% BSA) was added to each well, and the plate was incubated at 310 K for another 1 h. The plate was again washed three times with PBS/T, and then 100 μl of the secondary antibody (HRP-labeled goat anti-mouse IgG, from Zhongshan Golden Bridge Biotechnology Co. Ltd., China, diluted 1:1,000 in PBS/T with 1.5% BSA) was added to each well and incubated for 1 h at 310 K, followed by three times of washing with PBS/T. Finally, 100 μl of 3,3′,5,5′-tetramethylbenzidine (TMB, Xinjingke Biotechnology Co. Ltd., China) substrate was added to each well, and the plate was incubated at 310 K for 15 min, and then the reaction was stopped by addition of 100 μl of 2 M H2SO4 to each well, and the plate was read on the ELISA plate reader (SpectraMax M5 Molecular Devices Corporation) at 450 nm to determine the OD values. […]
On the technique in general: ELISA stands for enzyme-linked immunosorbent assay.

In test [3] the test system is calf thymus DNA (ct-DNA). Nature of the test: Competitive displacement of EB from ct-DNA by fluorescence titration (intercalation). In kind it is binding. To be noted: Tris-HCl pH 7.4, 310 K, λex = 500 nm. How it is done: (§1) Complexes 2 and 4 were dissolved in DMSO to yield a panel of 0.25, 0.5, 1.0, 1.5, 2.0, 3.0, 4.0, and 5.0 mM solutions. The calf thymus DNA (ct-DNA) was dissolved in Tris-HCl buffer (pH = 7.4) to give a […] solution. Ethidium bromide (EB) (10 mM, 2 μl) or Hoechst 33342 (4 mM, 5 μl) and ct-DNA ([…], 978 or 975 μl) was incubated at 310 K for 0.5 h. Then the DMSO solution of complexes (20 μl) was added to the resulting solution and kept incubated. After 2 h, each reaction mixture was measured on an F-4500 fluorescence spectrophotometer (HITACHI) with excitation wavelength at 500 nm and emission spectra from 520 to 700 nm for EB mixed solution and excitation wavelength at 370 nm and emission spectra from 400 to 650 nm for Hoechst 33342 mixed solution. A modified Stern–Volmer plot (Sarwar et al., [2015]) was employed to evaluate the affinity of complexes toward DNA.

For test [4], the system named is calf thymus DNA (ct-DNA). Nature of the test: Competitive displacement of Hoechst 33342 from ct-DNA by fluorescence titration (minor groove binding). To be noted: for affinity in minor groove binding relative to intercalation with DNA: Ksv Hoechst vs Ksv EB; for Ksv (Stern–Volmer quenching constant), replacing Hoechst from ct-DNA: Tris-HCl pH 7.4, 310 K, λex = 370 nm. The method, then: as §1

T1 sequence (P00533 712-979 limits assumed): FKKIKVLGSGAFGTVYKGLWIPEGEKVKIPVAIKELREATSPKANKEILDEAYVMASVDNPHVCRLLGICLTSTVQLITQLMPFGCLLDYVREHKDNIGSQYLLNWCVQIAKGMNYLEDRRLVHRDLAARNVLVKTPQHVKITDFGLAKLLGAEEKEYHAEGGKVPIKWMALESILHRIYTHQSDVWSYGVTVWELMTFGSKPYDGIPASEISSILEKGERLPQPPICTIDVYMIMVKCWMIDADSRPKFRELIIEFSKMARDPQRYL
Procedure for A431 cells: as §2
Procedure for A549 cells: as §2
Procedure for HeLa cells: as §2
Procedure for MCF-7 cells: as §2

Regarding `N.N.[Cl][Pt][Cl]` [Cisplatin, reference compound], the IC50 with A549 cells came to 10.1 ± 1.6 µM; with A431 cells, 11.1 ± 0.4 µM; with HeLa cells, 12.9 ± 0.6 µM; in the test with MCF-7 cells it was 15.6 ± 0.8 µM; in test [1], 30.9 ± 1.1 µM.

As for `COc1cc2ncnc(Nc3ccc(F)c(Cl)c3)c2cc1OCCn1cc[n+]([Pt-2]23[n+]4ccccc4-c4cc(-c5ccc(C)cc5)cc([n+]42)-c2cccc[n+]23)c1.F[P-](F)(F)(F)(F)F.F[P-](F)(F)(F)(F)F` [Complex 1], the IC50 was 0.0092 ± 0.0006 µM in test [2]; 13.2 ± 1.8 µM with A549 cells; 7.7 ± 1.8 µM with A431 cells; 29.8 ± 5 µM with HeLa cells; 20.3 ± 2.7 µM in the test with MCF-7 cells; 28.9 ± 1.7 µM in test [1].

Regarding `COc1cc2ncnc(Nc3ccc(F)c(Cl)c3)c2cc1OCCCn1cc[n+]([Pt-2]23[n+]4ccccc4-c4cc(-c5ccc(C)cc5)cc([n+]42)-c2cccc[n+]23)c1.F[P-](F)(F)(F)(F)F.F[P-](F)(F)(F)(F)F` [Complex 2], the IC50 in test [2] came to 0.007 ± 0.003 µM; in the test with A549 cells, 6.5 ± 2.5 µM; in the test with A431 cells, 1.4 ± 0.4 µM; in the test on HeLa cells it was 19.4 ± 5.6 µM; in the test with MCF-7 cells, 27.7 ± 2.2 µM; in test [1], 13.5 ± 1.8 µM. Moreover, the “Ksv (Stern–Volmer quenching constant), replacing EB from ct-DNA” value in the test with calf thymus DNA (ct-DNA) [3] came out at 25900 M⁻¹. Further, in the test with calf thymus DNA (ct-DNA) [4], the “affinity in minor groove binding relative to intercalation with DNA” value is given as ~ 10 times. In addition, the “Ksv (Stern–Volmer quenching constant), replacing Hoechst from ct-DNA” value in the test with calf thymus DNA (ct-DNA) [4] was 313000 M⁻¹.

As for `COc1cc2ncnc(Nc3ccc(F)c(Cl)c3)c2cc1OCCn1cc[n+]([Pt-2]23[n+]4ccccc4-c4cc(-c5ccc(Br)cc5)cc([n+]42)-c2cccc[n+]23)c1.F[P-](F)(F)(F)(F)F.F[P-](F)(F)(F)(F)F` [Complex 3], the IC50 amounted to 0.0109 ± 0.003 µM in test [2]; 12.2 ± 2.2 µM with A549 cells; 7.4 ± 0.4 µM in the test with A431 cells; 13.4 ± 1.3 µM in the test on HeLa cells; 24.8 ± 1.1 µM in the test on MCF-7 cells; 32 ± 1.6 µM in test [1].

As for `COc1cc2ncnc(Nc3ccc(F)c(Cl)c3)c2cc1OCCCn1cc[n+]([Pt-2]23[n+]4ccccc4-c4cc(-c5ccc(Br)cc5)cc([n+]42)-c2cccc[n+]23)c1.F[P-](F)(F)(F)(F)F.F[P-](F)(F)(F)(F)F` [Complex 4], the IC50 came to 0.0096 ± 0.0025 µM in test [2]; 11.6 ± 1.1 µM in the test on A549 cells; 7.9 ± 3.2 µM with A431 cells; 39.4 ± 0.1 µM with HeLa cells; 19.9 ± 2.7 µM in the test with MCF-7 cells; 26.6 ± 3 µM in test [1]. In addition, in the test on calf thymus DNA (ct-DNA) [3], the “Ksv (Stern–Volmer quenching constant), replacing EB from ct-DNA” value is 18900 M⁻¹. Also, the “affinity in minor groove binding relative to intercalation with DNA” value in the test on calf thymus DNA (ct-DNA) [4] is reported as ~ 10 times. Also, in the test with calf thymus DNA (ct-DNA) [4], the “Ksv (Stern–Volmer quenching constant), replacing Hoechst from ct-DNA” value was 311000 M⁻¹.
